Test results taken from ChEMBL document CHEMBL1145582, “4,5-Disubstituted oxazolidinones: High affinity molecular effectors of RNA function” (Bioorg Med Chem Lett, 2008).
The source made the active and inactive calls. No cut-off for these calls is given here.

How the values were obtained:
[1] = Binding affinity at 3'-Fl-18-Rh-C11U T box antiterminator model RNA by FRET assay; parameters: species or system Bacillus subtilis
[2] = Binding affinity at RNAs 3'-Fl-18-Rh-AM1A T box antiterminator model RNA by FRET assay; parameters: species or system Bacillus subtilis
[3] = biological target: T1, Guanyl-specific ribonuclease T1 (Aspergillus oryzae (strain ATCC 42149 / RIB 40)) (UniProt P00651); assay: Decrease in Aspergillus oryzae RNase T1 cleavage in AM1A T box antiterminator model RNA
T1 sequence (whole entry): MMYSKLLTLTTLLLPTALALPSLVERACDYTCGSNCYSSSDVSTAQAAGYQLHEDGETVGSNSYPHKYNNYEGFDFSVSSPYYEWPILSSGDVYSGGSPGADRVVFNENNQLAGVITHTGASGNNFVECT

Bacillus subtilis = assay: Reduction of Bacillus subtilis tRNA-glycine-dependent antitermination at 1.3 mM in presence on RNA polymerase; parameters: scale not given: the % may be the effect or the level left
[4] = biological target: T1, Guanyl-specific ribonuclease T1 (Aspergillus oryzae (strain ATCC 42149 / RIB 40)); assay: Enhancement of Aspergillus oryzae RNase T1 cleavage in position 15 of AM1A T box antiterminator model RNA
[5] = biological target: T1, Guanyl-specific ribonuclease T1 (Aspergillus oryzae (strain ATCC 42149 / RIB 40)); assay: Reduction of Aspergillus oryzae RNase T1 cleavage in position 7 of AM1A T box antiterminator model RNA; parameters: scale not given: the % may be the effect or the level left
[6] = Binding affinity at AM1A T box antiterminator model RNA in presence of cognate tRNA; parameters: species or system Bacillus subtilis
[7] = biological target: T1, Guanyl-specific ribonuclease T1 (Aspergillus oryzae (strain ATCC 42149 / RIB 40)); assay: Reduction of Aspergillus oryzae RNase T1 induced cleavage at position 8 of AM1A T box antiterminator model RNA; parameters: scale not given: the % may be the effect or the level left
[8] = biological target: T1, Guanyl-specific ribonuclease T1 (Aspergillus oryzae (strain ATCC 42149 / RIB 40)); assay: Reduction of Aspergillus oryzae RNase T1 cleavage in position 9 of AM1A T box antiterminator model RNA; parameters: scale not given: the % may be the effect or the level left

Structure (SMILES) | Kd [1] | Kd [2] | further results
CN(C[C@H]1NC(=O)O[C@@H]1COC(=O)Cc1ccccc1)c1ccccc1 | 122 µM | 61 µM | –
O=C(Cc1ccccc1)OC[C@H]1OC(=O)N[C@@H]1CN1CCOCC1 | – | 42 µM | –
CN(CCc1ccccc1)C[C@H]1NC(=O)O[C@@H]1COC(=O)Cc1ccccc1 | – | 114 µM | –
CC(=O)c1ccc(NC(=O)OC[C@H]2OC(=O)N[C@@H]2CN2CCN(c3ccccc3)CC2)cc1 | < 1 µM | 0.9 µM | Activity [3]: Active
O=C(Cc1ccccc1)OC[C@H]1OC(=O)N[C@@H]1CN1CCN(c2ccccc2)CC1 | 100 µM | 13 µM | Activity (Bacillus subtilis): 40%; Activity [4]: 70%; Activity [5]: 44%; Kd [6]: 64 µM; Activity [7]: 41%; Activity [8]: 57%
O=C(Cc1ccccc1)OC[C@H]1OC(=O)N[C@@H]1Cc1ccccc1 | 125 µM | 9 µM | –
CCCCCCCC(=O)OC[C@H]1OC(=O)N[C@@H]1CN(C)c1ccccc1 | 4.1 µM | 6.6 µM | –
